Source: US9949980B2, “Drugs to prevent HPV infection” (Wisconsin Alumni Research Foundation, priority 2008, dated 2018)
Like-named read-outs stand apart in the source and are kept apart here.

Assays:
in vitro [1] = settings: human, Viability (CelTiter Glow)
HPV11 pseudoviruses = assay: HPV11 pseudovirus infection in HaCaT cells; assay type: cell-based
Method: (§1) FIG. 4. Compounds 13 and 14 can inhibit infection by multiple anogenital HPVs. Shown are results from infection experiments in HaCaT cells monitoring the efficiency of infection by HPV16, HPV11 and HPV31 pseudovirus carrying the firefly luciferase gene in the absence (0 μM, vehicle only) or increasing concentrations (0.1 to 100 μM) of Compound 13 or 14. The Y axis is the relative efficiency of infection (squares) or cell viability (circles) as a function of drug concentration (X axis). All data points represent the average of values from triplicate samples. […] Data for HPV16 is the also plotted in FIG. 2.
(§2) Compounds 13 and 14: inhibition of infection by multiple papillomavirus genotypes. The goal of this study is to identify compounds that inhibit all sexually transmitted HPVs. For this reason, we monitored the ability of Compounds 13 and 14 to inhibit infection of two additional papillomavirus pseudoviruses that were generated using the capsid proteins of two other sexually transmitted HPVs, high risk HPV31 and low risk HPV11. […]
(§3) At 4 hours prior to exposure of cell to pseudoviruses, compounds were added to plates in 1% DMSO final concentration at the indicated amounts. […] Cell viability was assessed in parallel plates by Luminescent Cell Viability Assay (Promega Cat. #G7571).

HaCaT cells = assay type: cell-based, human; settings: for CD50 (cytotoxicity): human, 76 h
Excerpt: FIG. 2. Dose dependence inhibition of HPV16 pseudovirus infection in a human keratinocyte cell line (HaCaT). Graphed are the dose-dependent effects of lead compounds shown in Table 2 on the efficiency of infection by HPV16 pseudovirus scored by measuring luciferase reporter activity (squares) as well as their effects on cell viability (circles).
All but one of these compounds (6 is […]) were repurchased and subjected to a tertiary screen performed in the human keratinocyte cell line, HaCaT, and using HPV16 pseudoviruses encoding a third reporter gene, firefly luciferase, transcribed from a different, E1a, promoter.
(§4) At 4 hours prior to exposure of cell to pseudoviruses, compounds were added to plates in 1% DMSO final concentration at the indicated amounts. Four hours later, 10 multiplicity of infection (M.O.I.) units of HPV16 pseudovirus carrying the plasmid LucF was added to the cells. 72 hours later, cells were lysed and luciferase assays performed using the Luciferase Assay System (Promega Cat. #E1501). For infection studies with HPV11 and HPV31 pseudoviruses, 200 virus genome equivalents (vge) of virus per cell were used. Cell viability was assessed in parallel plates by Luminescent Cell Viability Assay (Promega Cat. #G7571).

[2] = system: HPV16, HPV11, and HPV31 pseudovirus; assay: Infection by HPV16, HPV11 and HPV31 pseudovirus in HaCaT cells (all genotypes together); assay type: cell-based, HPV; settings: for IC50 in words for all three HPV pseudovirus infections: HPV16, HPV11, HPV31, 0.1 to 100 μM; for Concentration that completely inhibited all the tested genotypes: HPV16, HPV11, HPV31 pseudovirus
Method: as §1
Infection experiments in human keratinocyte cell line, HaCaT, monitoring the efficiency of infection by HPV16, HPV11, and HPV31 pseudovirus carrying the firefly luciferase gene were conducted in the absence or increasing concentrations (0.1 to 100 μM) of Compounds 13 and 14 (see FIG. 4).
In vitro data were collected at 3 μM concentration. […] A human treatment dosage is preferably between 0.1 μM and 100 mM, more preferably between 1 and 10 mM.
as §4

HPV16 pseudoviruses = assay: microbe, parasite or virus in culture; assay type: cell-based; settings: Human papillomavirus 16, HEK-293T, 48 h
In short: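 Viability was read by CellTiter Glo luminescence on the same wells used for the SEAP infection read-out, after 48 hrs further incubation.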

HPV31 pseudoviruses = assay: HPV31 pseudovirus infection in HaCaT cells; assay type: cell-based
Method: as §1, §2, §3

in vitro [3] = settings: human
Method: The protocol for the secondary screen was identical to that of the primary screen with the exception that all volumes were scaled up by a factor of four. RL activity was measured using the Renilla Luciferase Assay System (Promega).

in vitro [4] = settings: human; remark: listed apart in the source
[5] = read-out: Infectivity (SEAP Activity), 3 μM HTS standard concentration, 293T cells, 48 hrs
[6] = read-out: Infectivity vs. viability, 3 μM HTS standard concentration, ratio infectivity/viability
[7] = read-out: Primary HTS SEAP vs Viability, Table 2, first pair of columns (c2)
[8] = read-out: Primary HTS SEAP vs Viability, Table 2, second pair of columns (c4)

## CCCn1c2ccccc2c2nnc(SC(CC)C(=O)Nc3ccc(Cl)cn3)nc21 (stereo not drawn) [Compound 13, N-(5-chloro-2-pyridinyl)-2-[(5-propyl-5H-[1,2,4]triazino[5,6-b]indol-3-yl)thio]butanamide]
In vitro [1]
  viability at 52 h, 3 μM: 102%
HPV11 pseudoviruses
  IC50: < 0.1 µM
HaCaT cells
  Toxicity / cytotoxicity in words: little to no cytotoxicity
  CD50 (cytotoxicity): 25 µM
[2]
  IC50 in words for all three HPV pseudovirus infections: Submicromolar
  Concentration that completely inhibited all the tested genotypes: 10 µM
HPV16 pseudoviruses; [5]
  activity at 3 µM: 21.8%
HPV16 pseudoviruses; [6]
  activity at 3 µM: 21.4%
HPV16 pseudoviruses; [7]
  activity at 3 µM: 8.25%
HPV16 pseudoviruses; [8]
  activity at 3 µM: 35.4%
HPV31 pseudoviruses
  IC50: 0.15 µM

## Cc1cc(C(c2ccc(F)cc2)c2cc(C)c(NC(=O)c3ccccc3)c(C)c2)cc(C)c1NC(=O)c1ccccc1 [Compound 14, N,N′[[(4-fluorophenyl)methylene]bis(2,6-dimethyl-4,1-phenylene)]dibenzamide]
In vitro [1]
  viability at 52 h, 3 μM: 110%
HPV11 pseudoviruses
  IC50: < 0.1 µM
In vitro [3]
  viability at 52 h, 3.3 μM: 106%
HaCaT cells
  Toxicity / cytotoxicity in words: little to no cytotoxicity
  CD50 (cytotoxicity): > 100 µM
[2]
  IC50 in words for all three HPV pseudovirus infections: Submicromolar
  Concentration that completely inhibited all the tested genotypes: 4 µM
In vitro [4]
  viability at 52 h, 3.3 μM: 106%
HPV16 pseudoviruses; [5]
  activity at 3 µM: 51%
HPV16 pseudoviruses; [6]
  activity at 3 µM: 46.5%
HPV16 pseudoviruses; [7]
  activity at 3 µM: 65.4%
HPV16 pseudoviruses; [8]
  activity at 3 µM: 36.6%
HPV31 pseudoviruses
  IC50: < 0.1 µM
